Data published in patent publication US20240108580A1, “DECOQUINATE LIPOSOME, PREPARATION METHOD THEREFOR AND USE THEREOF” (CAS LAMVAC (GUANGZHOU) BIOMEDICAL TECHNOLOGY CO.,LTD., priority 2019, published 2024).
Where two headings read alike, the source gives them in different places.

What was measured:
P. falciparum 3D7 = assay: In-vitro inhibition potency against Plasmodium falciparum, 72 hours, nucleic acid dye; format: cell-based
Experimental: (§1) The volume was filled up to 1 L with ultrapure water, the pH adjusted to 7.2, subjected to sterilized filtration by using a 0.22 μm filtration membrane, and stored at 4° C. to obtain a complete culture medium; the incomplete medium was composed of 10.43 g of 1640 dry powder (GIBCO, 31800022), 5.96 g of Hepes, 2 g of sodium bicarbonate, 0.292 g of L-glutamine, 3.96 g of glucose, […] of hypoxanthine and 2.5 mg of gentamicin, prepared by the same method as for the complete culture medium. • (2) Drugs and formulations: pure decoquinate was dissolved in DMSO as a stock solution, chloroquine was dissolved in PBS, and artemisinin was dissolved in DMSO and then diluted with PBS. […] Before the experiment, all the above dissolved drug solutions were then diluted to series of 10 gradient concentrations with the incomplete medium. • (3) Culture and assay method: Plasmodium falciparum was cultured in the complete culture medium, and human red blood cells (RBC) were preserved in the incomplete culture medium. […] The culture was incubated at 37° C. in 5% CO2 for 72 hours, then nucleic acid dye was added, and the […] measured in a microplate reader. The half-maximal inhibitory concentration (IC50) of drugs was calculated with Graph Pad software, that is, the concentration when the inhibition rate of antimalarial drugs to P. falciparum reached 50% was calculated.

P. falciparum Dd2 = assay: as above; format: cell-based
Experimental: as §1

[1] = cited from earlier work
[2] = 3D7, chloroquine-sensitive strain, liposome values are decoquinate concentrations, read-out: IC50 P. falciparum 3d7 Mean ± S.D.
[3] = DD2, multidrug-resistant (including chloroquine) strain, liposome values are decoquinate concentrations, read-out: IC50 P. falciparum Dd2 Mean ± S.D.

Row | IC50 (P. falciparum 3D7; [2]) | IC50 (P. falciparum Dd2; [3]) | Structure (SMILES) | IC50 (P. falciparum 3D7; 3D7, read-out: IC50 P. falciparum 3d7 Mean ± S.D.) | IC50 (P. falciparum Dd2; DD2, read-out: IC50 P. falciparum Dd2 Mean ± S.D.) | Solubility in ethanol ([1]; ethanol) | Solubility in water ([1]; water)
1 | 16.4 ± 5.8 nM | 18.5 ± 0.5 nM | C[C@@H]1CC[C@H]2[C@@H](C)C(=O)O[C@@H]3O[C@@]4(C)CC[C@@H]1[C@]32OO4 [Artemisinin, artemisinin] |  |  |  | 
2 |  |  | CCN(CC)CCCC(C)Nc1ccnc2cc(Cl)ccc12 (centres unmarked) [Chloroquine, chloroquine] | 23.75 ± 0.06 nM | 185 ± 16.2 nM |  | 
3 | 1.63 ± 0.13 nM | 1.57 ± 0.49 nM | CCCCCCCCCCOc1cc2c(O)c(C(=O)OCC)cnc2cc1OCC [Pure DQ, ethyl 6-decyloxy-7-ethoxy-4-hydroxyquinoline-3-carboxylate] |  |  | slightly soluble | practically insoluble
